{"source": "patent US20130266663A1", "about": "“SOX9 INHIBITORS” (priority 2010, published 2013)", "key": {"[1]": {"test_system": "SOX9", "test": "SOX9 luciferase reporter assay in transfected astrocytes", "type": "cell-based, rat", "details": "cultured rat astrocytes, 24 h treatment", "source_text": "Cultures early after plating bear characteristics of immature and reactive astroctyes associated with acute damage. In this assay, primary astrocytes are transfected with a SOX9 reporter construct that consists of 4 repeats of the SOX9 binding site coupled to the mouse Col2a1 minimal promoter cloned upstream of a luciferase gene in the plasmid pGL4, as previously described in WO 2008/049226. After normalization for transfection efficiency, SOX9 activity can be monitored in transfected astrocytes by luciferase activity. Cells transfected with the SOX9 reporter construct were cultured in the presence and absence of potential inhibitors for 24 hours at which time the cells were lysed and luciferase levels measured. Compounds that reduced the levels of luciferase activity relative to control wells were considered as positive “hits”. In a secondary screen, false positives that cause a reduction in luciferase activity due to effects on cell viability, were eliminated using a cell viability assay (CellTiter-Flour—Promega). Subsequent to secondary screening, the “hits” were evaluated for their affect on SOX9 target gene expression by Q-PCR studies in primary astrocytes.\nThe utility of calmodulin antagonists (inhibitor) to decrease SOX9 target gene expression was evaluated in cultured rat astrocytes transfected with pGL4.1 4×48 Col2a1 prepared as described in Example 1. This plasmid contains 4-48 bp SOX9-binding sites from the Col2A1 enhancer which promote luciferase reporter gene expression in cells where SOX9 is active i.e. in the nucleus. The day after transfection, cells were treated for 24 h with inhibitor in concentrations as described below and in FIG. 5 before the luciferase assay was performed.\nIn this example, the potential of compounds that modulate calcium channels to modulate SOX9 activity is tested. The compounds were evaluated in cultured rat astrocytes transfected with pGL4.1 4×48 Col2a1. The day after transfection, cells were treated for 24 h with selected inhibitors before the luciferase assay was performed.\nAntagonists to TRPV4 cation channel were tested to determine their ability to decrease the activity of SOX9 in astrocytes. The effect of TRPV4 antagonists on SOX9 function was evaluated in cultured rat astrocytes transfected with pGL4.1 4×48 Col2a1. The day after transfection, cells were treated for 24 h with 2-APB (100 μM) or ruthenium red (10 μM) before the luciferase assay was performed. […] With respect to SOX9 target genes, Q-PCR analysis of aged primary astrocyte cultures was performed to determine the impact of the TRPV4 antagonists on SOX9. […] Collagen IV is a significant scarring extracellular matrix produced by astrocytes and contributing to the inhibitory properties of the glial scar."}, "[2]": {"test_system": "SOX9 target genes", "test": "Real-time PCR of SOX9 target genes after SCI, chlorpromazine i.p. once a day for 7 days", "type": "in vivo, rat", "protocol": "In the context of rodent studies, administration of chlorpromazine was assessed using delivery by intraperitoneal injection (as described in Example 3) and intrathecal miniosmotic pump (as described in Example 5). In summary, three doses of chlorpromazine were given i.p. (2 mg/kg, 4 mg/kg and 6 mg/kg) once a day for 7 days. The rats were then sacrificed and realtime pCR analysis of SOX9, GFAP. XT1, link protein, collagen 2A, aggrecan and brevican was conducted on a spinal cord sample normalizing to 18S."}, "[3]": {"test_system": "SOX9 target genes", "test": "Q-PCR of SOX9 target gene expression in aged primary astrocyte cultures", "type": "cell-based, rat", "source_text": "Another approach to modulating the capacity of calmodulin to transport SOX9 into the nucleus is via competitive inhibition of calmodulin binding. To that effect, a novel peptide (SOX-CAL) was generated to specifically block the calmodulin SOX9 binding site. The SOX-CAL peptide sequence, […] (SEQ ID NO.8), corresponds with the calmodulin binding sequence in SOX9. To ensure the peptide's entry into the cell, it was synthesized fused to the protein transduction domain of the HIV-1 Tat protein. […] This analysis was performed in contrast to the control FLAG-TAT peptide.\nAntagonists to TRPV4 cation channel were tested to determine their ability to decrease the activity of SOX9 in astrocytes. The effect of TRPV4 antagonists on SOX9 function was evaluated in cultured rat astrocytes transfected with pGL4.1 4×48 Col2a1. The day after transfection, cells were treated for 24 h with 2-APB (100 μM) or ruthenium red (10 μM) before the luciferase assay was performed. The broad-spectrum transient receptor potential (TRP) channel antagonist 2-APB inhibited SOX9 activity by ˜70%, while the vanniloid subfamily-specific TRP antagonist ruthenium red inhibited SOX9 activity by ˜25%. With respect to SOX9 target genes, Q-PCR analysis of aged primary astrocyte cultures was performed to determine the impact of the TRPV4 antagonists on SOX9. Treatment with ruthenium red specifically reduces aggrecan and Col4a expression by 40% and 50%, respectively (FIG. 6B), while 2-APB reduces XT-1, HAPLN1, aggrecan, Col2a, and Col4a by 50%, 70%, 80%, 50%, and 60% respectively (FIG. 6B, C), in rat primary astrocytes after a 48 hour exposure (n=3). […] Based on the role that the TRP channels serve in modulating calcium levels, and therefore calmodulin activity, the effect of the TRP channel blockers on SOX9 activity appears to be indirect."}, "[4]": {"test_system": "MCAO mice", "test": "Grip testing after MCAO (stroke model)", "type": "in vivo", "details": "mouse MCAO, 5 mg/kg daily i.p. from 24 hours post-injury", "protocol": "At 3 days and 7 days post-injury, recovery of the damaged side was assessed by grip testing. […] This provides evidence that chemical compounds that modulate SOX9 activity can improve behavioral function following general CNS damage including that associated with spinal cord injury and stroke.\nStroke injury model: A standard MCAO mouse model will be utilized. Briefly, an 11 mm length of monofilament nylon coated with Poly-L-lysine is passed into the common carotid artery, through the internal carotid artery, and past the middle cerebral artery (MCA), effectively occluding the MCA. The loop of suture is tightened down and the mouse allowed to recover in a warm cage. Effective cerebral blood flow reduction is confirmed by a laser-Doppler flowmetry probe (reductions of 70% or better indicating successful occlusion). After 30 minutes for a moderate injury or 60 minutes for a severe injury, the mouse is re-anesthetized and the nylon suture removed allowing reperfusion."}, "[5]": {"test_system": "Collagen IV", "test": "Western blotting of astrocyte culture protein extract probed with anti-collagen IV", "type": "cell-based, rat", "details": "20 uM"}, "[6]": {"details": "rat SCI, i.p. 2, 4 and 6 mg/kg once a day for 7 days, normalized to 18S"}}}
{"smiles": "CN(C)CCCN1c2ccccc2Sc2ccc(Cl)cc21", "note": "[chlorpromazine]", "values": [{"measurement": "concentration at which the decrease in luciferase reporter activity is optimized / maximal", "setting": "[1]", "result": 20, "unit": "µM"}, {"measurement": "luciferase reporter activity (SOX9 activity)", "setting": "[1]; various concentrations (FIG. 5)", "result": "apparent dose dependent response to limiting luciferase expression"}, {"measurement": "impact on target gene expression", "setting": "[2]; at 2 and 4 mg/kg administration, i.p., 7 days", "result": "apparent impact on target gene expression"}, {"measurement": "expression of Aggrecan", "setting": "[2]; [6]", "result": "reduces the expression"}, {"measurement": "expression of Brevican", "setting": "[2]; [6]", "result": "reduces the expression"}, {"measurement": "expression of GFAP", "setting": "[2]; [6]", "result": "reduces the expression"}, {"measurement": "expression of HAPLN1", "setting": "[2]; [6]", "result": "reduces the expression"}, {"measurement": "expression of SOX9", "setting": "[2]; [6]", "result": "reduces the expression"}, {"measurement": "expression of XT-1", "setting": "[2]; [6]", "result": "reduces the expression"}, {"measurement": "expression of type 2A Collagen", "setting": "[2]; [6]", "result": "reduces the expression"}, {"measurement": "expression of C4ST", "setting": "[3]; 20 uM, 48 hours, vs vehicle", "result": "significantly reduced"}, {"measurement": "expression of XT1", "setting": "[3]; 20 uM, 48 hours, vs vehicle", "result": "significantly reduced"}, {"measurement": "expression of XT2", "setting": "[3]; 20 uM, 48 hours, vs vehicle", "result": "significantly reduced"}, {"measurement": "SOX9 target genes expression", "setting": "[3]; longer treatments (1 week)", "result": "even more profound reductions"}, {"measurement": "improvement over saline control in grip testing", "setting": "[4]; 3 days post injury", "result": "approximately 15%"}, {"measurement": "improvement over saline control in grip testing", "setting": "[4]; 7 days post injury", "result": "approximately 20%"}, {"measurement": "level of collagen IV (Western blot)", "setting": "[5]", "result": "reduced level of collagen"}]}
